Earlier results on one compound are cited in patent US9603811B2, “Pharmaceutical compositions of carotenoid chylomicrons” (HEALTH-EVER BIOTECH CO. LTD, priority 2013, dated 2017).

Structures are written as SMILES. Where two headings read alike, the source gives them in different places.

Turning to `CC(C)=CCC/C(C)=C/C=C/C(C)=C/C=C/C(C)=C/C=C/C=C(C)/C=C/C=C(C)/C=C/C=C(\C)CCC=C(C)C` [solanorubin], the solubility in water entry is “practically insoluble in water”. In addition, the solubility in water result (listed as Solanorubin) is “insoluble in water”.
